Measurements reported in publication PMC7109127 (British Journal of Cancer, 2020).
Values joined by “and” are separate entries in the source; they are usually repeats but may differ in a detail not shown here. Identical values can stand only once. Like-named read-outs stand apart in the source and are kept apart here.

Key:
[1] = phase 1b/2 study, safety, DLT and MTD/RP2D (CTCAE v4.0)
Method: The RP2D was defined as the MTD.
The treatment schedule was modified as there was concern on tolerability of longer dosing in patients with underlying cirrhosis. […] Study treatment was continued until disease progression or unacceptable toxicity.
Safety assessments were done at baseline, on cycle 1 days 1 and 15, and on day 1 of each cycle thereafter. Tumour assessments were performed by computed tomography or magnetic resonance imaging at baseline and every 8 weeks thereafter. Confirmatory imaging was performed within 6 weeks in patients with complete response or partial response. AEs were assessed using the National Cancer Institute Common Terminology Criteria for Adverse Events (CTCAE) v4.0. Blood sample collection for pharmacokinetic (PK) and pharmacodynamic (PD) analysis was performed on cycle 1 days 1 and 15 pre-dose as well as 2 and 4 h post dose.

[2] = phase 1b/2 study, plasma pharmacokinetics (LC-MS/MS, NCA and nonlinear mixed-effects model); format: in vivo, patients; design: AUC0-4: concentration or dose not given beside the values
Method: LC-MS/MS analysis of the extracted samples was performed using an Agilent Technologies (Santa Clara, California) HPLC system and the API 3000 mass spectrometer (Sciex, Framingham, MA) with electrospray ionisation. Chromatographic separation was achieved using a biphasic gradient over a Cortecs C18 column (2.1 × 50 mm^2, Waters Corporation, Milford, MA) preceded by a Cortecs C18+VanGuard Cartridge (2.1 × 5 mm^2, Waters Corporation). Analytes were detected using multiple reaction monitoring in positive ion mode.
A nonlinear mixed-effects model was developed using first-order conditional estimation with interaction (FOCE-I) with the Laplacian option selected. This estimator was chosen as it is more suitable to modelling sparse data sets. One- and two-compartment structural models were tested with first-order absorption, both with and without a separate bioavailability term. Estimates for inter-subject variability were tested on all PK parameters using exponential relationships and were included where they could be confidently estimated. Inter-occasion variability between cycle 1 day 1 and cycle 1 day 15 was also tested. The residual unexplained variability in drug concentrations was tested with additive, proportional, and combined additive and proportional error models. Model selection was performed on the basis of the negative log-likelihood objective function (OFV) and standard goodness-of-fit and diagnostic plots. The final model was composed of one disposition compartment with first-order absorption and elimination. […] To facilitate comparison with previous studies, AUCs from 0 to 4 and 0 to 24 h were calculated from each individual’s model-predicted PK profile. Similarly, the maximum concentration (Cmax) and time of maximum concentration in a given dosing interval (tmax) were estimated both from the original data and the model prediction. The analysis was performed with NONMEM 7.4.1 (ICON plc, Dublin, Ireland), integrated with PSN 4.6.0 (psn.sourceforge.net) and using the Pirana 2.9.2 interface (pirana-software.com).

[3] = individual patient estimate (Subject ID in c0)
[4] = individual patient, Day 1, NCA and Observation
[5] = individual patient, Day 15, NCA and Observation

COc1cc2nccc(Oc3ccc(NC(=O)Nc4cc(C)on4)c(Cl)c3)c2cc1OC [tivozanib]
deaths due to toxicity ([1]; 27 patients): No deaths due to toxicity
MTD/RP2D ([1]; per os once daily, 21 days on–7 days off, advanced HCC): 1 mg
viral loads ([1]; two HBV-positive and three HCV-positive patients): remained stable
tmax, Median ([2]; Day 1, 1 mg, NCA and observation): 4.067 h
AUC(0-t) ([2]; human, plasma, oral, 1 mg, Day 1, 1 mg, Model prediction, read-out: AUC0–4, Mean): 14.3 ng·h/mL
AUC(0-t) ([2]; human, plasma, oral, 1 mg, Day 1, 1 mg, Model prediction, read-out: AUC0–24, Mean): 176 ng·h/mL
Cmax ([2]; human, plasma, oral, 1 mg, Day 1, 1 mg, Model prediction, read-out: Cmax, Mean): 8.75 ng/mL
tmax ([2]; human, plasma, oral, 1 mg, Day 1, 1 mg, Model prediction, read-out: tmax, Median): 13.3 h
AUC(0-t) ([2]; human, plasma, oral, 1 mg, Day 1, 1 mg, NCA and observation, read-out: AUC0–4, Mean): 14.2 ng·h/mL
Cmax ([2]; human, plasma, oral, 1 mg, Day 1, 1 mg, NCA and observation, read-out: Cmax, Mean): 6.54 ng/mL
tmax ([2]; human, plasma, oral, 1 mg, Day 1, 1 mg, NCA and observation, read-out: tmax, Median): 4.07 h
AUC(0-t) ([2]; human, plasma, oral, 1 mg, Day 15, 1 mg, Model prediction, read-out: AUC0–4, Mean): 190 ng·h/mL
AUC(0-t) ([2]; human, plasma, oral, 1 mg, Day 15, 1 mg, Model prediction, read-out: AUC0–24, Mean): 1100 ng·h/mL
Cmax ([2]; human, plasma, oral, 1 mg, Day 15, 1 mg, Model prediction, read-out: Cmax, Mean): 50.7 ng/mL
tmax ([2]; human, plasma, oral, 1 mg, Day 15, 1 mg, Model prediction, read-out: tmax, Median): 7 h
AUC(0-t) ([2]; human, plasma, oral, 1 mg, Day 15, 1 mg, NCA and observation, read-out: AUC0–4, Mean): 184 ng·h/mL
Cmax ([2]; human, plasma, oral, 1 mg, Day 15, 1 mg, NCA and observation, read-out: Cmax, Mean): 58.7 ng/mL
tmax ([2]; human, plasma, oral, 1 mg, Day 15, 1 mg, NCA and observation, read-out: tmax, Median): 2.05 h
Vd/F ([2]; human, plasma, oral, 1 mg, typical population value, read-out: Apparent Volume of Distribution (V/F)): 105 L
Apparent systemic clearance [2, 3]: 0.99 L/h and 0.81 L/h and 0.80 L/h
Apparent volume of distribution [2, 3]: 159 L
AUC0-4 [2, 4]: 20.2 ng·h/mL and 21.6 ng·h/mL and 35.9 ng·h/mL and 27.7 ng·h/mL and 1.5 ng·h/mL and 11.0 ng·h/mL and 7.0 ng·h/mL and 16.2 ng·h/mL and 30.3 ng·h/mL and 18.0 ng·h/mL and 18.1 ng·h/mL and 10.6 ng·h/mL and 10.7 ng·h/mL and 16.6 ng·h/mL and 13.8 ng·h/mL and 6.8 ng·h/mL and 15.5 ng·h/mL and 10.3 ng·h/mL and 3.6 ng·h/mL and 0.6 ng·h/mL and 3.5 ng·h/mL and 21.5 ng·h/mL and 18.8 ng·h/mL and 8.9 ng·h/mL and 4.7 ng·h/mL and 24.5 ng·h/mL and 19.4 ng·h/mL
Cmax [2, 4]: 8.57 ng/mL and 13.6 ng/mL and 16.3 ng/mL and 9.53 ng/mL and 1.42 ng/mL and 3.62 ng/mL and 2.78 ng/mL and 6.93 ng/mL and 11.8 ng/mL and 8.23 ng/mL and 6.82 ng/mL and 5.84 ng/mL and 4.7 ng/mL and 7.56 ng/mL and 4.71 ng/mL and 3.4 ng/mL and 5.18 ng/mL and 8.48 ng/mL and 1.4 ng/mL and 0.616 ng/mL and 2 ng/mL and 7.29 ng/mL and 7.79 ng/mL and 5.82 ng/mL and 2.97 ng/mL and 8.63 ng/mL and 10.6 ng/mL
tmax [2, 4]: 4.067 h and 4.417 h and 4.05 h and 2.167 h and 4.083 h and 4.183 h and 4.017 h and 4.2 h and 4.033 h and 2.067 h and 4.133 h and 5.25 h and 7.667 h and 2.1 h and 4.35 h and 4.167 h
AUC0-4 [2, 5]: 333.0 ng·h/mL and 558.5 ng·h/mL and 360.8 ng·h/mL and 205.7 ng·h/mL and 154.1 ng·h/mL and 177.6 ng·h/mL and 112.9 ng·h/mL and 103.0 ng·h/mL and 261.2 ng·h/mL and 156.5 ng·h/mL and 150.0 ng·h/mL and 134.8 ng·h/mL and 134.3 ng·h/mL and 148.1 ng·h/mL and 239.7 ng·h/mL and 175.8 ng·h/mL and 163.5 ng·h/mL and 154.7 ng·h/mL and 185.6 ng·h/mL and 106.3 ng·h/mL
Cmax [2, 5]: 89.5 ng/mL and 201 ng/mL and 104 ng/mL and 58.8 ng/mL and 43.1 ng/mL and 47 ng/mL and 31.1 ng/mL and 32.3 ng/mL and 70.9 ng/mL and 61.2 ng/mL and 49.9 ng/mL and 33.3 ng/mL and 37.8 ng/mL and 69.4 ng/mL and 53.6 ng/mL and 43.4 ng/mL and 40.3 ng/mL and 38.7 ng/mL and 57.4 ng/mL and 47.3 ng/mL and 30.8 ng/mL
tmax [2, 5]: 2.06 h and 2.01 h and 2.1 h and 2.03 h and 2.07 h and 2.12 h and 2 h and 2.02 h and 4.12 h and 4.09 h and 3.91 h
Inter-individual variability (IIV) in CL/F ([2]; population model): 42.4 %CV
Inter-individual variability (IIV) in V/F ([2]; population model): 45.8 %CV
Inter-individual variability (IIV) in ka/F ([2]; population model): 57.5 %CV
Apparent Systemic Clearance (CL/F) ([2]; typical population value): 0.803 L/h
Apparent first-order absorption rate constant (ka/F) ([2]; typical population value): 0.239 h⁻¹
